Laboratory results from US20260166039A1 (SCHRÖDINGER, INC., priority 2022, published 2026).

Columns and labels:
Wee1 kinase domain = target: T1, Wee1 kinase domain (Homo sapiens, UniProt P30291); test: Wee1 Kinase Biochemical Assay (ADP-Glo); conditions: Wee1 kinase domain, 15 uM ATP, ADP-Glo
T1 construct: Wee1 kinase domain was purchased from Carna (catalog #05-177); purchased Carna 05-177
In short: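 Kinase domain (1 nM) incubated 4 h at 25 °C with 15 uM ATP and 2 ng/mL Poly(Lys,Tyr 4:1) in 40 mM Tris-HCl, 20 mM MgCl2, 0.1 mg/mL BSA, 2 mM DTT. ADP formation read by ADP-Glo luminescence; percent inhibition normalized to DMSO and saturating reference-inhibitor controls.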

[1] = tested on: phosphorylation of Cdc2 Y15 (Wee1 substrate) in A427 cells; test: Phosphorylated Cdc2 MSD Electrochemiluminescence Assay; assay type: cell-based; conditions: Homo sapiens, A-427, pCDC2 MSD
In short: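 A427 cells (RPMI 1640, 10% FBS) treated 20 h after plating with 3-fold serial compound dilutions, in duplicate, 37 °C, 5% CO2; total incubation 6 h. Lysate Cdc2 pY15 read by MSD electrochemiluminescence sandwich immunoassay; % remaining signal normalised to DMSO (high) and reference Wee1 inhibitor (low) controls.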

T1 sequence (P30291 299-569 limits assumed): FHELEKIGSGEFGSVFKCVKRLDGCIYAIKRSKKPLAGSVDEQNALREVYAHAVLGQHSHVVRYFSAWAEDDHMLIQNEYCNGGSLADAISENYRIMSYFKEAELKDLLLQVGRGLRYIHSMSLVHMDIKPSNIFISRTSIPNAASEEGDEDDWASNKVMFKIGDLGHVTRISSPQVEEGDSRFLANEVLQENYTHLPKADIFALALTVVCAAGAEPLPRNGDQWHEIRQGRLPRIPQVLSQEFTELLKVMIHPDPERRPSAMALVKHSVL

Row | Structure (SMILES) | IC50 (Wee1 kinase domain) [nM] | IC50 [1] [nM]
1 | CN[C@@H](Cc1ccc(Nc2ncc3c(n2)N(c2cccc(N4C(=O)OC[C@@H]4C)n2)[C@@H]2CC(C)(C)OC[C@]32C)cc1)C(=O)O (single isomer, unassigned) [Example 321] | < 10 | 100 to 1000
2 | CN[C@H](Cc1ccc(Nc2ncc3c(n2)N(c2cccc(N4C(=O)OC[C@@H]4C)n2)[C@@H]2CC(C)(C)OC[C@]32C)cc1)C(=O)O (single isomer, unassigned) [Example 323] | < 10 | 100 to 1000
3 | C[C@H]1COC(=O)N1c1cccc(N2c3nc(Nc4ccc(OC5CCNCC5)nc4)ncc3[C@@]3(C)COC(C)(C)C[C@@H]23)n1 (single isomer, unassigned) [Example 325] | < 10 | 100 to 1000
4 | Cc1cc(Nc2ncc3c(n2)N(c2cccc(N4C(=O)OC[C@@H]4C)n2)[C@@H]2CC(C)(C)OC[C@]32C)ccc1O[C@@H]1CCNC1 (single isomer, unassigned) [Example 337] | < 10 | 100 to 1000
5 | Cc1cc(Nc2ncc3c(n2)N(c2cccc(N4C(=O)OC[C@@H]4C)n2)[C@@H]2CC(C)(C)OC[C@]32C)ccc1O[C@H]1CCNC1 (single isomer, unassigned) [Example 339] | < 10 | 100 to 1000
6 | C[C@H]1COC(=O)N1c1cccc(N2c3nc(Nc4ccn(C)c(=O)c4)ncc3[C@@]3(C)COC(C)(C)C[C@@H]23)n1 (single isomer, unassigned) [Example 341] | < 10 | 100 to 1000
7 | C[C@H]1COC(=O)N1c1cccc(N2c3nc(Nc4ccc(OC5CNC5)nc4)ncc3[C@@]3(C)COC(C)(C)C[C@@H]23)n1 (single isomer, unassigned) [Example 343] | < 10 | 100 to 1000
8 | C[C@H]1COC(=O)N1c1cccc(N2c3nc(Nc4ccc(N5C[C@H]6C[C@@H](C5)N6C)cc4)ncc3[C@@]3(C)COC(C)(C)C[C@@H]23)n1 (single isomer, unassigned) [Example 352] | < 10 | 100 to 1000
9 | CNCc1ccc(Nc2ncc3c(n2)N(c2cccc(N4C(=O)OC[C@@H]4C)n2)[C@@H]2CC(C)(C)OC[C@]32C)cc1 (single isomer, unassigned) [Example 360] | < 10 | 100 to 1000
10 | Cn1ccc(Nc2ncc3c(n2)N(c2cccc(N=S(C)(C)=O)n2)[C@@H]2CC(C)(C)OC[C@]32C)cc1=O (single isomer, unassigned) [Example 363] | < 10 | 100 to 1000
11 | Cc1ccc(Nc2ncc3c(n2)N(c2cccc(N=S(C)(C)=O)n2)[C@@H]2CC(C)(C)OC[C@]32C)nn1 (single isomer, unassigned) [Example 364] | < 10 | 100 to 1000
12 | Cn1nc(Nc2ncc3c(n2)N(c2cccc(N=S(C)(C)=O)n2)[C@@H]2CC(C)(C)OC[C@]32C)ccc1=O (single isomer, unassigned) [Example 365] | < 10 | 1000 to 10000
13 | CC1(C)C[C@H]2N(c3cccc(N=S(C)(C)=O)n3)c3nc(Nc4cnccn4)ncc3[C@@]2(C)CO1 (single isomer, unassigned) [Example 366] | < 10 | 1000 to 10000
14 | CC1(C)C[C@H]2N(c3cccc(N=S(C)(C)=O)n3)c3nc(Nc4cncc(F)c4)ncc3[C@@]2(C)CO1 (single isomer, unassigned) [Example 369] | < 10 | 100 to 1000
15 | Cc1cc(Nc2ncc3c(n2)N(c2cccc(N=S(C)(C)=O)n2)[C@@H]2CC(C)(C)OC[C@]32C)cnn1 (single isomer, unassigned) [Example 370] | < 10 | 100 to 1000

Results, then the compound that gave them:

Row | IC50 (Wee1 kinase domain) [nM] | IC50 [1] [nM] | Structure (SMILES)
16 | < 10 | 100 to 1000 | C[C@H]1COC(=O)N1c1cccc(N2c3nc(Nc4ccc(C5CN(C)C5)cc4)ncc3[C@@]3(C)COC(C)(C)C[C@@H]23)n1 (single isomer, unassigned) [Example 311]
17 | < 10 | 100 to 1000 | C[C@@H]1CN(c2ccc(Nc3ncc4c(n3)N(c3cccc(N5C(=O)OC[C@@H]5C)n3)[C@@H]3CC(C)(C)OC[C@]43C)cc2)CCN1C (single isomer, unassigned) [Example 313]
18 | < 10 | 100 to 1000 | C[C@H]1CN(c2ccc(Nc3ncc4c(n3)N(c3cccc(N5C(=O)OC[C@@H]5C)n3)[C@@H]3CC(C)(C)OC[C@]43C)cc2)CCN1C (single isomer, unassigned) [Example 315]
19 | < 10 | 100 to 1000 | CN[C@H]1CCN(c2ccc(Nc3ncc4c(n3)N(c3cccc(N5C(=O)OC[C@@H]5C)n3)[C@@H]3CC(C)(C)OC[C@]43C)cc2)C1 (single isomer, unassigned) [Example 317]
20 | < 10 | 100 to 1000 | CN[C@@H]1CCN(c2ccc(Nc3ncc4c(n3)N(c3cccc(N5C(=O)OC[C@@H]5C)n3)[C@@H]3CC(C)(C)OC[C@]43C)cc2)C1 (single isomer, unassigned) [Example 319]
21 | < 10 | 100 to 1000 | C[C@H]1COC(=O)N1c1cccc(N2c3nc(Nc4ccc(O[C@@H]5CCNC5)cc4)ncc3[C@@]3(C)COC(C)(C)C[C@@H]23)n1 (single isomer, unassigned) [Example 327]
22 | < 10 | 100 to 1000 | C[C@H]1COC(=O)N1c1cccc(N2c3nc(Nc4ccc(O[C@H]5CCNC5)cc4)ncc3[C@@]3(C)COC(C)(C)C[C@@H]23)n1 (single isomer, unassigned) [Example 329]
23 | < 10 | 100 to 1000 | C[C@H]1COC(=O)N1c1cccc(N2c3nc(Nc4ccc(O[C@@H]5CCN(C)C5)cc4)ncc3[C@@]3(C)COC(C)(C)C[C@@H]23)n1 (single isomer, unassigned) [Example 331]
24 | < 10 | 100 to 1000 | C[C@H]1COC(=O)N1c1cccc(N2c3nc(Nc4ccc(O[C@H]5CCN(C)C5)cc4)ncc3[C@@]3(C)COC(C)(C)C[C@@H]23)n1 (single isomer, unassigned) [Example 333]
25 | < 10 | < 100 | C[C@H]1COC(=O)N1c1cccc(N2c3nc(Nc4ccc(OC5CCN(C)CC5)nc4)ncc3[C@@]3(C)COC(C)(C)C[C@@H]23)n1 (single isomer, unassigned) [Example 335]
26 | < 10 | 100 to 1000 | Cc1cc(Nc2ncc3c(n2)N(c2cccc(N4C(=O)OC[C@@H]4C)n2)[C@@H]2CC(C)(C)OC[C@]32C)ccc1O[C@H]1CCN(C)C1 (single isomer, unassigned) [Example 345]
27 | < 10 | 100 to 1000 | Cc1cc(Nc2ncc3c(n2)N(c2cccc(N4C(=O)OC[C@@H]4C)n2)[C@@H]2CC(C)(C)OC[C@]32C)ccc1O[C@@H]1CCN(C)C1 (single isomer, unassigned) [Example 347]
28 | < 10 | 100 to 1000 | C[C@H]1COC(=O)N1c1cccc(N2c3nc(Nc4ccc([C@@]5(C)CCN(C)C5)cc4)ncc3[C@@]3(C)COC(C)(C)C[C@@H]23)n1 (single isomer, unassigned) [Example 349]
29 | < 10 | < 100 | C[C@H]1COC(=O)N1c1cccc(N2c3nc(Nc4ccc([C@]5(C)CCN(C)C5)cc4)ncc3[C@@]3(C)COC(C)(C)C[C@@H]23)n1 (single isomer, unassigned) [Example 351]
30 | < 10 | 100 to 1000 | C[C@H]1COC(=O)N1c1cccc(N2c3nc(Nc4ccc(N5CC6(CN(C)C6)C5)cc4)ncc3[C@@]3(C)COC(C)(C)C[C@@H]23)n1 (single isomer, unassigned) [Example 355]
